The subject of this experiment is patients with temporomandibular pain. In words: Global pain reduction in TMJ patients, visual analogic scale (VAS). The experiment is classed as in vivo. The note with it: n=3 per group, treated 3 times over 24 h, VAS 8 hours after the last administration.

SMILES strings stand for the structures.

The record followed here is US20170319519A1, “COMBINATION FOR THE TREATMENT OF CONDITIONS INVOLVING MUSCULAR PAIN” (Spherium Biomed S.L., priority 2014, published 2017).

Description: In order to test the role of vitamin C in the formulation 7 groups of patients (n=3) with temporomandibular pain were administered the following combinations:
Patients were treated 3 times over 24 h, and were asked to evaluate their pain (localized and general) 8 hours after the last administration using a visual analogic scale (VAS) from 1 to 10, being 10 the most positive situation. The results of the two assessments were summed up to obtain the global pain score.

In the case of `O=C1O[C@H]([C@@H](O)CO)C(O)=C1O` [Group 7, Vitamin C], the “effect on reduction of (global) pain, conclusions in words” value is recorded as “worst values in all parameters”. The “effect on reduction of (global) pain, conclusions in words” value (listed as Vit C) is reported as “no effect”.
